Data taken from ChEMBL document CHEMBL1201862, “PubChem BioAssay data set” (2004).
Calls of active or inactive are those of the source.

Legend:
Cytochrome P450 3A4 = Cytochrome P450 3A4 (Homo sapiens, UniProt P08684); details: Potency;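 also: confirmatory qHTS run detecting inhibitors and substrates of CYP3A4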
cells [1] = assay type: functional, cell-based
cells [2] = assay type: functional, cell-based; remark: listed apart in the source
[3] = fluconazole-exposed Candida albicans growth modulators – fluorescence, retest, confirmation (AID 2467); assay type: functional, cell-based
[4] = NIH-3T3 fibroblast cytotoxicity, dose response, cytotoxicity control, cell-based, fluorescence, Alamar Blue, secondary assay (AID 2327); assay type: functional;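 also: NIH-3T3 mouse fibroblasts cultured with fluconazole at 8 µg/mL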
Beta-galactosidase = Beta-galactosidase (Escherichia coli, UniProt Q8VNN2); assay: detection-enzyme interference by beta-gal modulators – biochemical, E. coli enzyme, set 3, artefact control for CCR6 antagonist project, dose response (AID 504712); assay type: functional
Beta-galactosidase, sequence (Q8VNN2 whole entry): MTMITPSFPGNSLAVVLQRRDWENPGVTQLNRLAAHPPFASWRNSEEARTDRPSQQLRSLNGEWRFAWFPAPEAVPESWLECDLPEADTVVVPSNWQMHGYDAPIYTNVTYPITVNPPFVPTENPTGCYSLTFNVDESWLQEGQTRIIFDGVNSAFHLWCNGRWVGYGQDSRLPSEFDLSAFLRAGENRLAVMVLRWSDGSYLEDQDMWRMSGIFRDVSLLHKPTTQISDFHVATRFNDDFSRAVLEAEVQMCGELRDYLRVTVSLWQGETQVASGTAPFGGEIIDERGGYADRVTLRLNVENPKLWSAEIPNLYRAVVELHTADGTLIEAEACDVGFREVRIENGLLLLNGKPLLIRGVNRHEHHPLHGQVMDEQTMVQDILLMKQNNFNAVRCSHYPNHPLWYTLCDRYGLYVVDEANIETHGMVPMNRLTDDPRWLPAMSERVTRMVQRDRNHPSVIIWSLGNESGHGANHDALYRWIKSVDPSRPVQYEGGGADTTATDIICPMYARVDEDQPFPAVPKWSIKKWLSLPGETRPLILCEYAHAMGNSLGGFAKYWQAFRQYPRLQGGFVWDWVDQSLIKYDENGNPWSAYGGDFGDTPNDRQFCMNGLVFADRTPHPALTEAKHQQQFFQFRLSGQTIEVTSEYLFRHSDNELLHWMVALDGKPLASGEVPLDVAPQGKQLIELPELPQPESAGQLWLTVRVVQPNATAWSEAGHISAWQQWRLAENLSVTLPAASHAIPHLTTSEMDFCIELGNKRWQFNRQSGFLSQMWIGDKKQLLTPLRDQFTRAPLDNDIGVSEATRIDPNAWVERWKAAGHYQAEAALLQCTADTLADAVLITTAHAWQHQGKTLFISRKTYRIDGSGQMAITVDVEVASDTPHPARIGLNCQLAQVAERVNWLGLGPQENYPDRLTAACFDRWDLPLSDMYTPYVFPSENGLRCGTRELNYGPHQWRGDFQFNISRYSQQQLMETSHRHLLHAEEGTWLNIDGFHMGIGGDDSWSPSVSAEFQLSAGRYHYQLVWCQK

Streptococcus = assay: GAS UMAA2166 growth inhibition – luminescence, BacTiterGlo, counter-screen for streptokinase expression inhibitor project, dose response (AID 1915); assay type: functional, organism-based;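 also: potency for reduction of bacterial viability or growth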
[5] = system: Streptococcus sp. 'group A'; assay: Streptococcus pyogenes SK(-)GAS viability under kanamycin – luminescence, BacTiterGlo, confirmation, counter-screen for streptokinase expression inhibitor project, dose response (AID 1900); assay type: functional, organism-based
Streptokinase A = target: T1, Streptokinase A (Streptococcus pyogenes serotype M1, UniProt P10520); assay: viability-normalized secreted streptokinase activity reduction – plasminogen activation absorbance, OD405, dose response (AID 1914); assay type: functional, Streptococcus pyogenes M1 GAS;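 also: secreted streptokinase activity via plasminogen activation per viability signal from cell pellet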
T1 sequence (P10520 whole entry): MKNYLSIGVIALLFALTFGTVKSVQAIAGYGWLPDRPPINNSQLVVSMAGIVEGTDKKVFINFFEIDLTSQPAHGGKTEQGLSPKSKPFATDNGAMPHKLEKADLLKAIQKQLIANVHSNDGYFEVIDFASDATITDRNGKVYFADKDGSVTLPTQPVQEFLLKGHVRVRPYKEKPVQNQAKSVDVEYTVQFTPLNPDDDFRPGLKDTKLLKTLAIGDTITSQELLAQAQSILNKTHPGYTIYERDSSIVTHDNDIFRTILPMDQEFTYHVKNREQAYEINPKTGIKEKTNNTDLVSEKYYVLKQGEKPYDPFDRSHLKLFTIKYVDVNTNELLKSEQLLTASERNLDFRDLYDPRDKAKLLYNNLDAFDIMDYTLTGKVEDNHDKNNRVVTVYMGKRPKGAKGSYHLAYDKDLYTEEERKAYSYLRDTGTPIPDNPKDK

[6] = target: Voltage-dependent T-type calcium channel subunit alpha-1H (Homo sapiens, UniProt O95180); assay type: functional;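 also: channel activity triggered by adding a high calcium stimulation buffer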
Voltage-dependent T-type calcium channel subunit alpha-1H, sequence (O95180 whole entry): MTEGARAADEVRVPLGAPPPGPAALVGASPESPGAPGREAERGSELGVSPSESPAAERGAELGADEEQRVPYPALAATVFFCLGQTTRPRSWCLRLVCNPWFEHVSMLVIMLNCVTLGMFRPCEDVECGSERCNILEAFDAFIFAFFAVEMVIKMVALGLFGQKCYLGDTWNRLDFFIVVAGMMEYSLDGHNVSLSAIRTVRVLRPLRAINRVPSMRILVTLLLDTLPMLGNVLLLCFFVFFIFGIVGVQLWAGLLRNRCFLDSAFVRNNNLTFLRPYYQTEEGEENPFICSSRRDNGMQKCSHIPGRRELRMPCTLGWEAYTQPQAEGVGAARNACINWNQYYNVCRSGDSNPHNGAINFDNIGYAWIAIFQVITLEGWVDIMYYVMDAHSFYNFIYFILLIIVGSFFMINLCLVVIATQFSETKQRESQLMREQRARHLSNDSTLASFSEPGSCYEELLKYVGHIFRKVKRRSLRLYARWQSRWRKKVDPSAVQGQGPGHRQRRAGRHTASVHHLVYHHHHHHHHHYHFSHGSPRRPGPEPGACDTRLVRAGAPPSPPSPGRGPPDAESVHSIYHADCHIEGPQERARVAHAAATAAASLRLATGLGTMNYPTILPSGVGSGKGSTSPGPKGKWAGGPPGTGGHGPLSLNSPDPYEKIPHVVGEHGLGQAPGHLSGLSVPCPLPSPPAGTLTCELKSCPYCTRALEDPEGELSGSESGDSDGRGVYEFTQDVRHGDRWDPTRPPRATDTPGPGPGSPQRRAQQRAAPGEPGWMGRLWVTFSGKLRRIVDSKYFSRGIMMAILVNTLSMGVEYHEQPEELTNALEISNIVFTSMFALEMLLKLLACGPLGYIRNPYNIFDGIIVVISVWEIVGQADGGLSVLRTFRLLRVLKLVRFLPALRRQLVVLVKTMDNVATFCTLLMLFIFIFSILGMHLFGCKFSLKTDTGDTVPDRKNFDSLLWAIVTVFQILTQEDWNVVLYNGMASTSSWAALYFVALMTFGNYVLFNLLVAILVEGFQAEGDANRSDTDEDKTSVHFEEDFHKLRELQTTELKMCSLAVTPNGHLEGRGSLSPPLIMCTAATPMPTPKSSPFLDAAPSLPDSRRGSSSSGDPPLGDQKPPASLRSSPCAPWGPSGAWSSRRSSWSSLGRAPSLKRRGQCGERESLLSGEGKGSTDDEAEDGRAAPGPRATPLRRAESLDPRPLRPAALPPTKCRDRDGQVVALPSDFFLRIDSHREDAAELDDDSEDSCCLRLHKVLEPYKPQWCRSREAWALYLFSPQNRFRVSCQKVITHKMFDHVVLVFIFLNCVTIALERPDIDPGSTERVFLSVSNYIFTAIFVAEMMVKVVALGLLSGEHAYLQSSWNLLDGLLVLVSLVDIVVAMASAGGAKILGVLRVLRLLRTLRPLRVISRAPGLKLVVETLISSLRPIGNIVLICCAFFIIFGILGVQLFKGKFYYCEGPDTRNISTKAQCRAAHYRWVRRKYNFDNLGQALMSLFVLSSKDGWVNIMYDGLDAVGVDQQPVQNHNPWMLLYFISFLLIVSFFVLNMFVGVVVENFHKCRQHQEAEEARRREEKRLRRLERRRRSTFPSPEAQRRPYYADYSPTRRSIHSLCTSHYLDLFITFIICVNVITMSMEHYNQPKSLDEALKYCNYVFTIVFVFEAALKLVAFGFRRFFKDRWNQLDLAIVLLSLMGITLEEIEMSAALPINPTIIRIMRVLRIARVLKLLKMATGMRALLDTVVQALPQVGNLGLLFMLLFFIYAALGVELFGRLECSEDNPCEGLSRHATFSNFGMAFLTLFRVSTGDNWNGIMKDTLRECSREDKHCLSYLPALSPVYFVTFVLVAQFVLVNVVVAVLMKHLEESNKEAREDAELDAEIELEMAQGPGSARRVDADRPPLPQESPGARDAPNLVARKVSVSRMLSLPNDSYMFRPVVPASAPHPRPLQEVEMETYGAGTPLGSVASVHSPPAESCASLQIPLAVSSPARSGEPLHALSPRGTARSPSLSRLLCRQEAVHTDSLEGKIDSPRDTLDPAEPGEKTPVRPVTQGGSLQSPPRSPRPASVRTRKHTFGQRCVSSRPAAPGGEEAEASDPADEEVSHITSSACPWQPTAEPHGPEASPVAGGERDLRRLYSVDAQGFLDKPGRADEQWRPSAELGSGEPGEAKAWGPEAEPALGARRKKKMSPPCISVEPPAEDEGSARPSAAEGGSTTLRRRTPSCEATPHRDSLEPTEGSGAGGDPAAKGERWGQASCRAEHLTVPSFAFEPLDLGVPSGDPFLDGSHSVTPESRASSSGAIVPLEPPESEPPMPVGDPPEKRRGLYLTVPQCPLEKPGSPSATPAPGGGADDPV

[7] = target: T2, Heat shock factor protein 1 (Mus musculus, UniProt P38532); assay: enhancement of HSF1-driven luciferase signal – cell-based, NIH3T3, luminescence, dose retest, confirmation (AID 435004); assay type: functional;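 also: stress induced by proteasome inhibitor MG132 added 30 min after compound; luciferase reporter driven by HSF1 response element in NIH3T3 cells; actives raise luminescence as potentiators of the MG132 stress response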
T2 sequence (P38532 whole entry): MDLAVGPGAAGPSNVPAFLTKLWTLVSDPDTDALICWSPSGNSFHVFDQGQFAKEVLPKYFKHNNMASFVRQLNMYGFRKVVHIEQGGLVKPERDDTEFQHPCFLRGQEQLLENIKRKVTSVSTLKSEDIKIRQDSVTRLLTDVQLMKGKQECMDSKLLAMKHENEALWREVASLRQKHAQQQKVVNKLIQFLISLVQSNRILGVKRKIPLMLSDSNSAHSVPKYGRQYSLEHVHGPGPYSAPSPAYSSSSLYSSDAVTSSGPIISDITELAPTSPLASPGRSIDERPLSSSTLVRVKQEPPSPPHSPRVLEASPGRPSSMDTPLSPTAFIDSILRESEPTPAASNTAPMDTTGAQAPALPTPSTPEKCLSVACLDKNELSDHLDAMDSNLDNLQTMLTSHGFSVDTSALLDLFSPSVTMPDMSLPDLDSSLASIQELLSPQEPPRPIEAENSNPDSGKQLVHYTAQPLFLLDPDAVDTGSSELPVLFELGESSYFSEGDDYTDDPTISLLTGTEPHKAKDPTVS

[8] = microbe, parasite or virus in culture; assay type: functional; details: Mycobacterium tuberculosis
[9] = target: T3, Replicative DNA helicase DnaB (Mycobacterium tuberculosis, UniProt P9WMR3); assay: DnaB intein splicing inhibitors, dose response, biochemical, cell-free fluorescence (AID 449749); assay type: functional
T3 sequence (P9WMR3 whole entry): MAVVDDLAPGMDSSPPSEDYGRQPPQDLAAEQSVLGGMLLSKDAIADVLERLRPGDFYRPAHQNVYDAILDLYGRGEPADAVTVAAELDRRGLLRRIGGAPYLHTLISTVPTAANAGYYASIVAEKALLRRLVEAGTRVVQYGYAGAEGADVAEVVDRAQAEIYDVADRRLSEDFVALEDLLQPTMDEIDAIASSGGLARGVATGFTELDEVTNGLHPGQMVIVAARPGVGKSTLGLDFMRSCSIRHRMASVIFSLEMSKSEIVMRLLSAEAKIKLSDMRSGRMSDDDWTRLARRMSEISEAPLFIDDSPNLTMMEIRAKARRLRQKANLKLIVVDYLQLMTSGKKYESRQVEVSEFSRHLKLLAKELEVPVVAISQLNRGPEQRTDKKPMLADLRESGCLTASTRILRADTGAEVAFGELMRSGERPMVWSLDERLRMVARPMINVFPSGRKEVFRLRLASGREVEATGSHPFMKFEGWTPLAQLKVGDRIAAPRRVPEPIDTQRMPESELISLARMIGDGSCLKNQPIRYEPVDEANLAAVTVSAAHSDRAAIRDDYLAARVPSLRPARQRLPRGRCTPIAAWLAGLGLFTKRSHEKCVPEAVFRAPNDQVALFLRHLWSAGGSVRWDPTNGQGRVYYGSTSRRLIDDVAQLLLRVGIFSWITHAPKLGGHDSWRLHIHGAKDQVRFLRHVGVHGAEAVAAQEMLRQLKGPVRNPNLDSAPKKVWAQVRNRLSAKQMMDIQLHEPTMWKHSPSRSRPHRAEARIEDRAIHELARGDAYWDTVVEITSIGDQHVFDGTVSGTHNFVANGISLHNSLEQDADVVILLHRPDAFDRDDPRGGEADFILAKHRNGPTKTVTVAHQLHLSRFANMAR

Protein RecA = target: T4, Protein RecA (Mycobacterium tuberculosis, UniProt P9WHJ3); assay: Fluorescence Cell-Free Homogeneous Dose Retest to Identify Inhibitors of RecA-Intein Splicing Activity. [Related pubchem assays (depositor defined):AID2097, AID2223, AID489010, AID492950]; assay type: functional
T4 sequence (P9WHJ3 whole entry): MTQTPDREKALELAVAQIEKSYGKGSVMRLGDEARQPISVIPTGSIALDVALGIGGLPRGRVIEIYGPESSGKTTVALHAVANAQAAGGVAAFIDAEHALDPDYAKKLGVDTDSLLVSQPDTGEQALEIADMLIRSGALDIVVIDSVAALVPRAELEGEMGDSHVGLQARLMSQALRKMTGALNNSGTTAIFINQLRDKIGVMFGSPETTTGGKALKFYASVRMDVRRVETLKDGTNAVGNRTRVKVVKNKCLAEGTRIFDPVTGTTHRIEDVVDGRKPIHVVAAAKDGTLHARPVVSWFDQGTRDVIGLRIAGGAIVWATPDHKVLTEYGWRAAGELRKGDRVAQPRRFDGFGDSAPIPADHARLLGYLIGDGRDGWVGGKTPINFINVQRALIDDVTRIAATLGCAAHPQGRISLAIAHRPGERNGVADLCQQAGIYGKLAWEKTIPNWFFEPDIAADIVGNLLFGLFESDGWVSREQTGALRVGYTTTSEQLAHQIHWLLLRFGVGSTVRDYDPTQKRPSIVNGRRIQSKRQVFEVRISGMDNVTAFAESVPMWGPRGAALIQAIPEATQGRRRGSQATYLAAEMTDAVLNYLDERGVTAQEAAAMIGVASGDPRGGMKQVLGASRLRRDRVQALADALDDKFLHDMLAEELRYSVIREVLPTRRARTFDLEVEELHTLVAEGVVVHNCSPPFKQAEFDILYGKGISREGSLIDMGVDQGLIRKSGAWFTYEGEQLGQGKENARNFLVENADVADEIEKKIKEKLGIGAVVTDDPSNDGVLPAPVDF

[10] = HEK-293T viability loss after treatment – luminescence, T-cell screen hits, cytotoxicity control for TCR NF-kB inhibitor project, dose response (AID 489026); assay type: functional, cell-based;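 also: cells exposed to compound about 14 hours before the viability readout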
[11] = reduced cellular PGC1a acetyl-lysine signal – cell-based, cherry-picked samples, dose response (AID 720514); assay type: functional;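 also: potency may reflect raised or lowered acetylation signal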
Cytochrome P450 2D6 = Cytochrome P450 2D6 (Homo sapiens, UniProt P10635);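 also: CYP2D6 member of a cytochrome P450 panel assay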
Cytochrome P450 2D6, sequence (P10635 whole entry): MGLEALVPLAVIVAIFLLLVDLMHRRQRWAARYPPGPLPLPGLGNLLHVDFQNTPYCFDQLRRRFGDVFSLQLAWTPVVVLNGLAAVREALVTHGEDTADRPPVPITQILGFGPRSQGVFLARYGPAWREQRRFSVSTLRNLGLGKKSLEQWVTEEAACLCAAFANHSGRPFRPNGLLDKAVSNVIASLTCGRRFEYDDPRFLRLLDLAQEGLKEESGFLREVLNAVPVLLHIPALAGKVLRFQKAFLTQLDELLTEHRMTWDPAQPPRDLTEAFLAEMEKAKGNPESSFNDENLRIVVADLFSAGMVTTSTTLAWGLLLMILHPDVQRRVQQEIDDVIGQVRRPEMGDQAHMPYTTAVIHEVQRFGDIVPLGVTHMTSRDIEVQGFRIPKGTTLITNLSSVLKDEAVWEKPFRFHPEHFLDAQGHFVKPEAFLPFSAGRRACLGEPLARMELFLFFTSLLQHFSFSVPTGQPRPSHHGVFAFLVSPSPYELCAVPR

[12] = Trypanosoma cruzi growth suppression in host cells – NIH3T3 host cells, beta-gal luminescence, confirmation (AID 2044); assay type: functional, cell-based;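 also: intracellular parasites grown in NIH/3T3 mouse fibroblasts as host cells; luminescent beta-galactosidase reporter signal from transgenic T. cruzi replicating inside host cells; inhibitors lower the luminescence signal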
[13] = target: T5, Ubiquitin-conjugating enzyme E2 N (Homo sapiens, UniProt P61088); assay type: functional;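 also: Dose-response confirmation in a TR-FRET assay detecting UBC13-driven polyubiquitin chain formation, inhibition measured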
T5 sequence (P61088 whole entry): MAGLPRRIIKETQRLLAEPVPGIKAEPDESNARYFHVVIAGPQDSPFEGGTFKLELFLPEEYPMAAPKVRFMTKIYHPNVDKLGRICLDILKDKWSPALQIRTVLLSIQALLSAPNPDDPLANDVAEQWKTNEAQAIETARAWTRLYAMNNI

[14] = NIH3T3 cell viability loss – ATP luminescence, mouse fibroblasts, counter-screen, dose response (AID 2010); assay type: functional, cell-based;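 also: cells exposed to compound for about 90 hours before reading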
[15] = target: T6, Rac GTPase-activating protein 1 (Homo sapiens, UniProt Q9H0H5); assay: blockers of MgcRacGAP-driven Rac1 GTP hydrolysis – biochemical, ADP Hunter fluorescence, primary and confirmatory, confirmation (AID 624330); assay type: functional
T6 sequence (Q9H0H5 whole entry): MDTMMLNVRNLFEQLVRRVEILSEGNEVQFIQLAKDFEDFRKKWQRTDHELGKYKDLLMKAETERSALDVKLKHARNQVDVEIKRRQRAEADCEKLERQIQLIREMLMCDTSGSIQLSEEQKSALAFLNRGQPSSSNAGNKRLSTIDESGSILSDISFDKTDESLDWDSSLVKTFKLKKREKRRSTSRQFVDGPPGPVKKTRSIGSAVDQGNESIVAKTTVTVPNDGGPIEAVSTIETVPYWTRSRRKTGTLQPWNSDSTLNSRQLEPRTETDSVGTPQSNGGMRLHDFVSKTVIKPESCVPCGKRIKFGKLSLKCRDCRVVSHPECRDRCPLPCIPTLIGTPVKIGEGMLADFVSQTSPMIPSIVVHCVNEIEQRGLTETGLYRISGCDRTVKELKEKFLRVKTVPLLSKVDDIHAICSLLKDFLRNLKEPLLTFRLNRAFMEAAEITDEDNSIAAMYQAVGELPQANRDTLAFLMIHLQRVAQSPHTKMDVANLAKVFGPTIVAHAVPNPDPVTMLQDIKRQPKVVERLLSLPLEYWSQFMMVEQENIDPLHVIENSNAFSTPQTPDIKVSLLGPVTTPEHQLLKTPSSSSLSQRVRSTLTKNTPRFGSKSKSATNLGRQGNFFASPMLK

[16] = viability of uninfected HEp-2 cells – cell-based, HTS, cytotoxicity control for RSV inhibitor project, dose response (AID 2410); assay type: functional; details: human respiratory syncytial virus

Cytochrome P450 3A4, sequence (P08684 whole entry): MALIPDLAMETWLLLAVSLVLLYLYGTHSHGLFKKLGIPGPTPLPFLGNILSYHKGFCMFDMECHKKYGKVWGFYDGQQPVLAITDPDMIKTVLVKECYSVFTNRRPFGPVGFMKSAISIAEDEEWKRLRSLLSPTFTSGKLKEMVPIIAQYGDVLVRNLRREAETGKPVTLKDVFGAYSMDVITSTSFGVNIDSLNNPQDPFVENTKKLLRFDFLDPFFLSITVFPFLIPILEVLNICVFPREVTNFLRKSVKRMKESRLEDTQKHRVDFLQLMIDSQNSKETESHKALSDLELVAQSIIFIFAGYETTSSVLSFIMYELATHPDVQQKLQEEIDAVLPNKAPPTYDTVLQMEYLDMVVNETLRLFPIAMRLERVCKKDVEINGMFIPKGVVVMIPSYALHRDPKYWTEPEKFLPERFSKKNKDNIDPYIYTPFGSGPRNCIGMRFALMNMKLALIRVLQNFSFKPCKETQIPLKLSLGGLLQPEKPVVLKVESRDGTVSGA

CC(=O)Oc1ccc2c(c1C(C)C)CCC1C(C)(C)CCC[C@@]21C (some centres not stated)
AC50 (Cytochrome P450 3A4): 39.8 µM (inconclusive)

FC(F)(F)c1ccc(CN2C[C@@H]3C(c4ccc(Cl)nc4)C4(c5ccccc5)CC3(C4)[C@H]2c2ccccc2)cc1 (some centres not stated)
AC50 (Cytochrome P450 3A4): 20 µM (inconclusive)

CC1CCN(C(=O)CS(=O)(=O)Cc2ccccc2)CC1
EC50 (cells [1]): 273 µM (active)
EC50 (cells [2]): > 350 µM (not active)

CC(=O)N1CCC(=NNC(=O)c2cc3ccccc3cc2O)CC1
EC50 [3]: > 38 µM (not active)
EC50 [4]: > 150 µM (inactive)
EC50 (cells [1]): 22.2 µM (active)
EC50 (cells [2]): > 350 µM (not active)

CCOC(=O)c1sc(=S)n(-c2ccccc2)c1C
EC50 (cells [1]): > 350 µM (not active)
EC50 (cells [2]): > 350 µM (not active)

COC(=O)[C@@H]1C[C@H]2CC[C@H](O)C[C@H]2N1Cc1ccc(C)s1
AC50 (Cytochrome P450 3A4): 15.8 µM (inconclusive)

CC(=O)N1c2ccc(S(=O)(=O)N3CCCC(C(=O)Nc4cccc(Cl)c4)C3)cc2CC1C (configuration not stated)
IC50 (Beta-galactosidase): > 66.6 µM (inactive)

Cc1ccc2nc(N3C(=O)CNC3=S)sc2c1
EC50 (Streptococcus): 11.2 µM (active)
EC50 [5]: 4.9 µM (active)
EC50 (Streptokinase A): > 150 µM (not active)
IC50 (Beta-galactosidase): > 66.6 µM (inactive)

Cc1cc(C)cc(N(CC(=O)Nc2ccccc2C(=O)N2CCOCC2)S(C)(=O)=O)c1
EC50 (cells [1]): > 350 µM (not active)
EC50 (cells [2]): > 350 µM (not active)

O=S(=O)(NCCc1csc(-c2ccccc2)n1)c1ccc2c(c1)OCCO2
EC50 [6]: 23.2 µM (active)

CCN(CCCNC(=O)CCNC(=O)Cn1ccc2ccccc2c1=O)c1ccccc1
EC50 (cells [1]): > 350 µM (not active)
EC50 (cells [2]): > 350 µM (not active)

CCCSc1nnc(Sc2nnnn2-c2ccccc2)s1
EC50 [7]: 22 µM (active)
CC50 [8]: 6.83 µM (active)
AC50 [9]: 12.5 µM (active)
EC50 (Protein RecA): 14.5 µM (active)
IC50 [10]: > 80 µM (inactive)
AC50 [11]: 771 nM (active)

Fc1ccc(Cn2nnnc2C(c2ccc(Cl)cc2)N2CCSCC2)cc1 (configuration not stated)
EC50 [6]: 9.78 µM (active)

O=C(O)[C@@H](c1ccccc1)[C@@H](C(=O)O)c1ccccc1
AC50 (Cytochrome P450 2D6): inconclusive

CO[C@@H]1COC(=O)CC=C[C@@H](C)[C@@H]2C=C[C@H](O)[C@@H](COC(=O)[C@H](C)NC(=O)CC=C[C@H]1C)O2
AC50 (Cytochrome P450 2D6): inconclusive

CN1CCc2c(sc3c2c(=O)n(-c2ccccc2)c2nncn32)C1
AC50 (Cytochrome P450 2D6): inconclusive

O=C1CC(N2CCN(c3ccccn3)CC2)C(=O)N1CC(c1ccccc1)c1ccccc1 (configuration not stated)
EC50 [6]: 5.85 µM (active)

Cc1nc(NC2CCCCC2)c2nc(-c3ccccc3)n(CCCN3CCOCC3)c2n1
AC50 (Cytochrome P450 3A4): 5.01 µM (inconclusive)

CCCCCCn1nc(C(=O)Nc2nc3c(s2)CCCC3)c2ccccc2c1=O
EC50 (cells [1]): 115 µM (active)
EC50 (cells [2]): > 350 µM (not active)

N=C(N)N/N=C/c1ccc2cccc(OCc3ccccc3)c2n1
EC50 [12]: 685 nM (active)
IC50 [13]: > 20 µM (inactive)
EC50 [14]: > 60 µM (not active)
IC50 (Beta-galactosidase): > 66.6 µM (inactive)

C[C@]12CC[C@H]3C(=CCc4cc(O)ccc43)[C@@H]1CCC2=O [EQUILIN]
IC50 [15]: 94.6 µM (active)
CC50 [16]: 22.6 µM (active)
AC50 (Cytochrome P450 3A4): 39.8 µM (inconclusive)
